Reference: patent publication US20220226337A1 (Gilead Sciences, Inc., priority 2018, published 2022)

target: T1, α4β7 integrin interaction with MadCAM-1 (RPMI8866 cells) (Homo sapiens, UniProt P13612+P26010); test: α4β7 Integrin Cell Capture Assay; type: cell-based; settings: capture of α4β7 integrin expressing RPMI8866 cells on recombinant MadCAM-1 extracellular domain-coated plate; 0.5 mM MnCl2
T1 construct: α4β7 integrin expressing cells; endogenous in cells; host or cells: RPMI8866 cells
T1 sequence (P13612 34-1032): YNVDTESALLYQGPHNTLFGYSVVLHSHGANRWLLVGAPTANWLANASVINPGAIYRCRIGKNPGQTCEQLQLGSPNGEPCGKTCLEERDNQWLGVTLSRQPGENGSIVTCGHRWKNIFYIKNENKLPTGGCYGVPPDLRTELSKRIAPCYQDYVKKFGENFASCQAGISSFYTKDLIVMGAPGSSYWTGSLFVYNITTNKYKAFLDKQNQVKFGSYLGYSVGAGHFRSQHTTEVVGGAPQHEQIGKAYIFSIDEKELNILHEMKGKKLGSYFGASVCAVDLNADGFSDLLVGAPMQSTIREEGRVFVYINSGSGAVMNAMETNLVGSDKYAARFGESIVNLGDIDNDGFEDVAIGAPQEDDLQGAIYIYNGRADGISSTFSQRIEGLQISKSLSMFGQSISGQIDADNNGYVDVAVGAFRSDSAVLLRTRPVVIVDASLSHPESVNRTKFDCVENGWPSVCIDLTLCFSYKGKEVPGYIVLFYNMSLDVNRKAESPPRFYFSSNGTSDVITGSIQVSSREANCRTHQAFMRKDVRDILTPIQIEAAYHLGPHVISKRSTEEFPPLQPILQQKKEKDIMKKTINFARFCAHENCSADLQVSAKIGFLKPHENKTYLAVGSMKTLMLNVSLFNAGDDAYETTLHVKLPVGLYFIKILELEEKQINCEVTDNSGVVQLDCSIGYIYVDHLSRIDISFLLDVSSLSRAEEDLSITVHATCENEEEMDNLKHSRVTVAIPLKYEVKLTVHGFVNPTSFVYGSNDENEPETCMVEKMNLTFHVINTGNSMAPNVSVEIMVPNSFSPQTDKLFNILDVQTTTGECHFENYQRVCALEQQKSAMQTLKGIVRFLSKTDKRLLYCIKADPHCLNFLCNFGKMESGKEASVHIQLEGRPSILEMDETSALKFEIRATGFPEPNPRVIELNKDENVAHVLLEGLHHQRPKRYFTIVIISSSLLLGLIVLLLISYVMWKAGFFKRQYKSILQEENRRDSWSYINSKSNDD
T1 sequence (P26010 20-798): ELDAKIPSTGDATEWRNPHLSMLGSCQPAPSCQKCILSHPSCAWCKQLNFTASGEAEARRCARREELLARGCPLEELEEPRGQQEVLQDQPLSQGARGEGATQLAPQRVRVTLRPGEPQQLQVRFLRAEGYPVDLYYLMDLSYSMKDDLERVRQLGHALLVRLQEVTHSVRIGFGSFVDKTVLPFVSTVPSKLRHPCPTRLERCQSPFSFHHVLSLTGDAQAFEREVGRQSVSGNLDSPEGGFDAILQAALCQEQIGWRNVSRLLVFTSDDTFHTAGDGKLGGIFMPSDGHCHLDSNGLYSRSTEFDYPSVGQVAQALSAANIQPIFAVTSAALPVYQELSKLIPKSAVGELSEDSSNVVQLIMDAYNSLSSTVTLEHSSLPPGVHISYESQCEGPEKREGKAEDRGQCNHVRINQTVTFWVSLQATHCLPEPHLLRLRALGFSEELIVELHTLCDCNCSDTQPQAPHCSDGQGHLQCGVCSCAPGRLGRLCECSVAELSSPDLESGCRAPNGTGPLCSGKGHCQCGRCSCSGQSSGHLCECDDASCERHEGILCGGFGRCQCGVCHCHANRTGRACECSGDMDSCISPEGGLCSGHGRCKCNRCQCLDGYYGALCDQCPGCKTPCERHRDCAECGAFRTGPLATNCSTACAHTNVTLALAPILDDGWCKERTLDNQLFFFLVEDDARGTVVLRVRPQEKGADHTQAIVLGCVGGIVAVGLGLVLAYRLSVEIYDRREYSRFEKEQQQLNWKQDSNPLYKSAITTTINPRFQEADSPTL
How it was run: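 RPMI8866 cells (0.5×10^6 cells/mL in DMEM + 0.5% FBS + 0.5 mM MnCl2) preincubated with compound 1 h at 37 °C, then allowed to adhere 30 min at 37 °C to plates coated with MAdCAM-1 extracellular domain (1.0 μg/mL). Bound cells fixed with 2% glutaraldehyde, Hoechst-stained, imaged and counted; EC50 from cell count versus concentration.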

Molecule	EC50 [nM]
CCc1nc(-c2ccc(C[C@H](NC(=O)c3c(C)cccc3F)C(=O)O)c3c2OCCO3)c(=O)n(C)c1CC [Example 180]	5.04
Cn1c(=O)n(-c2ccc(C[C@H](NC(=O)c3c(F)cc(N4CCOC[C@@H]4C(F)(F)F)cc3F)C(=O)O)c3c2COC3)c(=O)c2ccncc21 [Example 182]	0.277
Cc1cc(N2CCOC[C@@H]2C(F)(F)F)cc(F)c1C(=O)N[C@@H](Cc1ccc(-c2c(C)c(C(F)(F)F)cn(C)c2=O)c2c1COC2)C(=O)O [Example 187]	0.41
Cc1cc(N2CCOC[C@@H]2C(F)(F)F)cc(F)c1C(=O)N[C@@H](Cc1ccc(-c2cc3cnccc3n(C)c2=O)c2c1COC2)C(=O)O [Example 189]	0.242
Cn1c(=O)c(-c2ccc(C[C@H](NC(=O)c3c(F)cc(N4CCOC[C@@H]4C(F)(F)F)cc3F)C(=O)O)c3c2COC3)cc2cnccc21 [Example 190]	0.338
Cc1cc(C)n(C)c(=O)c1-c1ccc(C[C@H](NC(=O)c2c(F)cc(N3CCOC[C@@H]3C(F)(F)F)cc2F)C(=O)O)c2c1CCC2 [Example 195]	0.198
Cc1cc(N2CCOC[C@@H]2C(F)(F)F)cc(F)c1C(=O)N[C@@H](Cc1ccc(-c2c(C)c(C(F)(F)F)cn(C)c2=O)c2c1CCC2)C(=O)O [Example 196]	0.264
Cc1cc(N2CCOC[C@@H]2C(F)(F)F)cc(F)c1C(=O)N[C@@H](Cc1ccc(-c2c(C(F)(F)F)cc(C)n(C)c2=O)c2c1CCC2)C(=O)O [Example 200]	0.083
CC[C@@H](Nc1cc(F)c(C(=O)N[C@@H](Cc2ccc(-c3c(C(F)(F)F)cc(C)n(C)c3=O)c3c2CCC3)C(=O)O)c(F)c1)C(F)(F)F [Example 201]	0.63
Cc1cc(C(F)(F)F)c(-c2ccc(C[C@H](NC(=O)c3c(F)cc(N4CCOC[C@@H]4C(F)(F)F)cc3F)C(=O)O)c3c2CCC3)c(=O)n1C [Example 202]	0.144
Cc1cc(C(F)(F)F)c(-c2ccc(C[C@H](NC(=O)c3c(F)cc(N4CCOC[C@@H]4C(F)(F)F)cc3F)C(=O)O)c3c2CCN(C)C3)c(=O)n1C [Example 203]	0.36
CC[C@@H](Nc1cc(F)c(C(=O)N[C@@H](Cc2ccc(-c3c(C(F)(F)F)cc(C)n(C)c3=O)c3c2CN(C)CC3)C(=O)O)c(F)c1)C(F)(F)F [Example 204]	1.34
(S)-2-(2,6-difluoro-4-(((R)-1,1,1-trifluorobutan-2-yl)amino)benzamido)-3-(7-(1,4-dimethyl-2-oxo-5-(trifluoromethyl)-1,2-dihydropyridin-3-yl)-1,3-dihydroisobenzofuran-4-yl)propanoic acid [Example 25]	2.85

Now from value to molecule:

EC50 [nM]	Molecule
0.267	Cc1cc(N2CCOC[C@@H]2C(F)(F)F)cc(F)c1C(=O)N[C@@H](Cc1ccc(-c2nc(C)c(C)n(C)c2=O)c2c1OCCO2)C(=O)O [Example 179]
4.34	Cc1cccc(F)c1C(=O)N[C@@H](Cc1ccc(-c2nc(C)c(C)n(C)c2=O)c2c1OCCO2)C(=O)O [Example 181]
0.106	Cc1cc(N2CCOC[C@@H]2C(F)(F)F)cc(F)c1C(=O)N[C@@H](Cc1ccc(-c2c(C)nc(C)n(C)c2=O)c2c1COC2)C(=O)O [Example 183]
0.282	Cc1nc(C)n(C)c(=O)c1-c1ccc(C[C@H](NC(=O)c2c(F)cc(N3CCOC[C@@H]3C(F)(F)F)cc2F)C(=O)O)c2c1COC2 [Example 185]
0.227	Cc1cc(N2CCOC[C@@H]2C(F)(F)F)cc(F)c1C(=O)N[C@@H](Cc1ccc(-c2c(C(F)(F)F)cc(C)n(C)c2=O)c2c1COC2)C(=O)O [Example 188]
0.371	Cc1nc(-c2ccc(C[C@H](NC(=O)c3c(F)cc(N4CCOC[C@@H]4C(F)(F)F)cc3F)C(=O)O)c3c2C[C@H](O)C3)c(=O)n(C)c1C [Example 191]
0.228	Cc1nc(-c2ccc(C[C@H](NC(=O)c3c(F)cc(N4CCOC[C@@H]4C(F)(F)F)cc3F)C(=O)O)c3c2C[C@@H](O)C3)c(=O)n(C)c1C [Example 192]
0.264	Cc1nc(-c2ccc(C[C@H](NC(=O)c3c(F)cc(N4CCOC[C@@H]4C(F)(F)F)cc3F)C(=O)O)c3c2CCC3)c(=O)n(C)c1C [Example 193]
0.099	Cc1cc(N2CCOC[C@@H]2C(F)(F)F)cc(F)c1C(=O)N[C@@H](Cc1ccc(-c2c(C)nc(C)n(C)c2=O)c2c1CCC2)C(=O)O [Example 194]
0.308	Cc1nc(-c2ccc(C[C@H](NC(=O)c3c(F)cc(N4CCOC[C@@H]4C(F)(F)F)cc3F)C(=O)O)c3c2CC(O)C3)c(=O)n(C)c1C (some centres unmarked) [Example 197]
0.081	COc1cc(C)n(C)c(=O)c1-c1ccc(C[C@H](NC(=O)c2c(C)cc(N3CCOC[C@@H]3C(F)(F)F)cc2F)C(=O)O)c2c1CCC2 [Example 198]
0.19	Cc1cc(N2CCOC[C@@H]2C(F)(F)F)cc(F)c1C(=O)N[C@@H](Cc1ccc(-c2nc(C)c(C)n(C)c2=O)c2c1CCC2)C(=O)O [Example 199]
1.27	Cc1nc(-c2ccc(C[C@H](NC(=O)c3c(F)cc(N4CCOC[C@@H]4C(F)(F)F)cc3F)C(=O)O)c3c2CN(C)C3)c(=O)n(C)c1C [Example 205]
